The target in assay [1] is T1, Dihydrofolate reductase (Pneumocystis carinii, UniProt P16184).
T1 sequence (P16184 whole entry): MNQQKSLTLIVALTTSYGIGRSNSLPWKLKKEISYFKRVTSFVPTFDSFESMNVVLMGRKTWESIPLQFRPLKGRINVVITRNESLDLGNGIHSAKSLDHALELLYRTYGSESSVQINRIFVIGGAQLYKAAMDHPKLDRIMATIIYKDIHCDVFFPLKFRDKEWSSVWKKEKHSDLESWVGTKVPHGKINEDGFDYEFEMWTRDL
Description: Inhibitory activity against DHFR (Dihydrofolate reductase) from Pneumocystis carinii.

The target of assay [2] is T2, Bifunctional dihydrofolate reductase-thymidylate synthase (Toxoplasma gondii, UniProt Q07422).
T2 sequence (Q07422 whole entry): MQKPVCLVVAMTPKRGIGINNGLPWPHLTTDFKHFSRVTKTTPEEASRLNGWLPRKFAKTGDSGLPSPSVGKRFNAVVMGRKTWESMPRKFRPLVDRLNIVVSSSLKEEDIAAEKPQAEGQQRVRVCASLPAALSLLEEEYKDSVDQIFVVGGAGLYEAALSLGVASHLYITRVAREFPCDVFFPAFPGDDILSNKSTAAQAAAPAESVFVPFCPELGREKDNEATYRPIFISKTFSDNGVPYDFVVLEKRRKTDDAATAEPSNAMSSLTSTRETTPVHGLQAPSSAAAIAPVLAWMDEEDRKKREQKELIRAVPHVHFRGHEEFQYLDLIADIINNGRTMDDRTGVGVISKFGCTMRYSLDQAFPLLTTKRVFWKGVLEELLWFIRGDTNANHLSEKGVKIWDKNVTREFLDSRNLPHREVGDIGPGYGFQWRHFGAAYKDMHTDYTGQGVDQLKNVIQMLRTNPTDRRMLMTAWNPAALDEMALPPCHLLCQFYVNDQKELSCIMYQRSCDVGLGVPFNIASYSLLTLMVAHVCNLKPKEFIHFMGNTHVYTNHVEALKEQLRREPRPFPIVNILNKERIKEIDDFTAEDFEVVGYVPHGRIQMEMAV
The assay is described as follows: Inhibitory activity against DHFR (Dihydrofolate reductase) from Toxoplasma gondii.

The target in assay [3] is T3, Dihydrofolate reductase (Rattus norvegicus, UniProt Q920D2).
T3 sequence (Q920D2 whole entry): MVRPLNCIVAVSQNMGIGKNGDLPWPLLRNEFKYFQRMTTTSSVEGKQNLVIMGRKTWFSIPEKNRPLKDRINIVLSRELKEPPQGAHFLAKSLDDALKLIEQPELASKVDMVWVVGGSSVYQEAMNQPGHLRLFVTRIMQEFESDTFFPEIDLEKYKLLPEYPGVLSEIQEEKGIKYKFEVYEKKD
The assay is described as follows: Inhibitory activity against DHFR (Dihydrofolate reductase) from Rat liver.

The nature of assay [4]: Ratio of Dihydrofolate reductase inhibitory activity in rat to Toxoplasma gondii.
Assay [5] in a line: Ratio of Dihydrofolate reductase inhibitory activity in rat to Pneumocystis carinii.
Assay [6] concerns the target T4, Dihydrofolate reductase (Mycobacterium avium, UniProt O30463).
T4 sequence (O30463 whole entry): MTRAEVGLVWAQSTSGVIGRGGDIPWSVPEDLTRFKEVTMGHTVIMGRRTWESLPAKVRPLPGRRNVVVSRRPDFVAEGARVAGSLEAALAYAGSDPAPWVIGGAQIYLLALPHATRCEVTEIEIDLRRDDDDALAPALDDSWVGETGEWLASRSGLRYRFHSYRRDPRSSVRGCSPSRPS
The assay can be described thus: Inhibitory activity against DHFR (Dihydrofolate reductase) from Mycobacterium avium.

Assay [7] is described as follows: Ratio of Dihydrofolate reductase inhibitory activity in rat to Mycobacterium avium.

`Nc1nc(N)c2nc(CN3c4ccccc4Oc4ccccc43)cnc2n1`: the IC50 in assay [1] was 3400 nM; in assay [2] it was 2200 nM; in assay [3], 13000 nM.

Regarding `Nc1nc(N)c2nc(Cn3c4ccccc4c4ccccc43)cnc2n1`, the results for the IC50 in assay [1], in assay [2] and in assay [3] were 100 nM, 12 nM and 55 nM, respectively. Also, the Selectivity ratio in assay [4] turned out to be 4.6; in assay [5], 0.55.

For the compound `Nc1nc(N)c2nc(CN3c4ccccc4Sc4ccccc43)cnc2n1`, the IC50 came out at 120 nM in assay [1], 29 nM in assay [6], 110 nM in assay [2] and 200 nM in assay [3]. For the same compound, the Selectivity ratio in assay [7] worked out at 6.9; in assay [4], 1.8; in assay [5], 1.7.

`Nc1nc(N)c2nc(CN3c4ccccc4Cc4ccccc43)cnc2n1`: the concentration for half-maximal inhibition (IC50) stood at 42 nM in assay [1], 17 nM in assay [6], 29 nM in assay [2] and 27 nM in assay [3]. The Selectivity ratio turned out to be 1.6 in assay [7], 0.93 in assay [4] and 0.64 in assay [5].

Take `Nc1nc(N)c2nc(CN3c4ccccc4CCc4ccccc43)cnc2n1`: the Selectivity ratio in assay [4] was 5.6; in assay [5], 3.6.

In the case of `Nc1nc(N)c2nc(CN(c3ccccc3)c3ccccc3)cnc2n1`, the IC50 came out at 3700 nM in assay [6] and 4000 nM in assay [3]. Further, the Selectivity ratio in assay [7] came to 1.1; in assay [4], 3.1; in assay [5], 0.82.

Consider `Nc1nc(N)c2nc(CN3c4ccccc4C=Cc4ccccc43)cnc2n1`, for which the IC50 was determined as 12 nM in assay [6] and 43 nM in assay [2]. For the same compound, the Selectivity ratio in assay [7] turned out to be 367; in assay [4], 102; in assay [5] it was 21.

The term IC50 denotes the midpoint of a concentration-inhibition curve.

Values taken from ChEMBL document CHEMBL1132186, “Structure-based design of selective inhibitors of dihydrofolate reductase: synthesis and antiparasitic activity of 2, 4-diaminopteridine analogues with a bridged diarylamine side chain” (J Med Chem, 1999).
